In patent publication US20120101083A1, “S1P1 AGONISTS COMPRISING A BICYCLIC N-CONTAINING RING” (GLAXO GROUP LIMITED, priority 2009, published 2012):
Structures can show the parent of a compound that is named as a salt.

Experiments:
[1] = target: T1, S1P1 (PathHunter CHO-K1 EDG1 β-Arrestin cell line) (Homo sapiens, UniProt P21453); assay: S1P-1 β-Arrestin recruitment assay; assay type: cell-based; conditions: CHO-K1 EDG1 β-Arrestin cells, chemi-luminescence
T1 construct: host or cells: PathHunter CHO-K1 EDG1 β-Arrestin cell line
T1 sequence (P21453 whole entry): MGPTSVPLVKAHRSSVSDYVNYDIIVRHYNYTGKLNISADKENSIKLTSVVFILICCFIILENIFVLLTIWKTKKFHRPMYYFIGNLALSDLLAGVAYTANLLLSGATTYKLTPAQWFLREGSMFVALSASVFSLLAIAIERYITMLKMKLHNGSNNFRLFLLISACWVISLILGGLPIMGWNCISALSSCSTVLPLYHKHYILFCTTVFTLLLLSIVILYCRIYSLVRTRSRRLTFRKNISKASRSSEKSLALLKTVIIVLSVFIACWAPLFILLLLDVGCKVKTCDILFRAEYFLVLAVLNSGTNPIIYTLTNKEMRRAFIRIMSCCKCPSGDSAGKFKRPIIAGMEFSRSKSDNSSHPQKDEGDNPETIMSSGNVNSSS
T1 sequence (P32121 whole entry partner): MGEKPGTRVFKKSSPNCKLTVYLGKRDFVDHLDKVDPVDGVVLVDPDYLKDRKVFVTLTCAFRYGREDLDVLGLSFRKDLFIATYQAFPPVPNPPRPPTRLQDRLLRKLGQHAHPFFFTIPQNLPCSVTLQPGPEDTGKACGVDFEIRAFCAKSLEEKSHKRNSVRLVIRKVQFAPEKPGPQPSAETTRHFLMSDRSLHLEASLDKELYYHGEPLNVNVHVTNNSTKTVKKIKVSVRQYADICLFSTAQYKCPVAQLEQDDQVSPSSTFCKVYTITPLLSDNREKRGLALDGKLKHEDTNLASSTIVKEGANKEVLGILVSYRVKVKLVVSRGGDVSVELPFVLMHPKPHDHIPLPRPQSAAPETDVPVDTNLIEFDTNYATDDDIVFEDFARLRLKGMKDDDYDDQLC
Summary of the method: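 CHO-K1 cells expressing S1P1 and β-arrestin 2 fused to complementing β-galactosidase fragments, at 1×10^4 cells/well in pH 7.4 buffer with 0.1% BSA. Compound exposure 90 min at 37 °C then 15 min room temperature; chemiluminescent substrate added for 60 min before luminescence read.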

[2] = target: T2, S1P1 receptor (S1P1 expressing RH7777 membranes) (Homo sapiens, UniProt P21453); assay: S1P1 GTPγS assay; assay type: biochemical; conditions: tested in one of the above S1P1 assays (two GTPγS formats)
T2 construct: expressed in transfected cells; host or cells: RH7777 cells (membranes)
T2 sequence (P21453 whole entry): as the sequence (P21453 whole entry) above
Summary of the method: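 Membranes from RH7777 cells expressing human S1P1 (1.5 μg/well) precoupled 30 min on ice to WGA SPA beads in 20 mM HEPES pH 7.4, 10 mM MgCl2, 100 mM NaCl, with 10 μM GDP and 90 μg/ml saponin. [35S]-GTPγS 0.5 nM final added with compound; SPA signal read immediately.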

Structure (SMILES)	EC50 [1]	EC50 [2]
CC(C)Oc1ccc(-c2nc(-c3ccc4c(c3)CCN(C(=O)CNC[C@H](O)CO)CC4)no2)cc1C#N [Example 196, 5-[3-(3-{N-[(2S)-2,3-dihydroxypropyl]glycyl}-2,3,4,5-tetrahydro-1H-3-benzazepin-7-yl)-1,2,4-oxadiazol-5-yl]-2-[(1-methylethyl)oxy]benzonitrile hydrochloride]	≤ 0.1 µM	≤ 1 µM
CC(C)Oc1ccc(-c2nc(-c3ccc4c(c3)CCN(C(=O)CNC(CO)CO)CC4)no2)cc1C#N [Example 197, 5-[3-(3-{N-[2-hydroxy-1-(hydroxymethyl)ethyl]glycyl}-2,3,4,5-tetrahydro-1H-3-benzazepin-7-yl)-1,2,4-oxadiazol-5-yl]-2-[(1-methylethyl)oxy]benzonitrile hydrochloride]	≤ 0.01 µM	≤ 0.1 µM
